# According to PubChem BioAssay (NCI):
#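 The compound was tested at five concentrations on cells cultured in 96-well plates, with a 48-hour exposure period. GI50 marks 50% less growth. TGI denotes the concentration required for complete inhibition of growth.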
# Experiments:
# Experiment in all cases: growth of human tumour cells (NCI), 48 h
# [1] = tested on: A498 renal
# [2] = tested on: DU-145 prostate
# [3] = tested on: HCC-2998 colon
# [4] = tested on: HCT-15 colon
# [5] = tested on: HOP-18 NSCLC
# [6] = tested on: HOP-62 NSCLC
# [7] = tested on: HS 578T breast
# [8] = tested on: M19-MEL melanoma
# [9] = tested on: MALME-3M melanoma
# [10] = tested on: MDA-MB-231 breast
# [11] = tested on: NCI-H522 lung
# [12] = tested on: OVCAR-3 ovarian
# [13] = tested on: OVCAR-8 ovarian
# [14] = tested on: SK-MEL-2 melanoma
# [15] = tested on: SR leukemia
# [16] = tested on: SW-620 colon
# [17] = tested on: UACC-62 melanoma
# [18] = tested on: XF 498 CNS
smiles,measurement,setting,value
O=C1C=CC=C[C@@H]2C(C3OCCO3)CC[C@H]12.[C-]#[O+].[C-]#[O+].[C-]#[O+].[Fe] (stereo partly specified),GI50,[1],> 100 µM
same,TGI,[1],> 100 µM
same,GI50,[2],93.3 µM
same,TGI,[2],> 100 µM
same,GI50,[3],> 76.6 µM
same,TGI,[3],> 100 µM
same,GI50,[4],55.7 µM
same,TGI,[4],> 95.4 µM
same,GI50,[5],> 52.8 µM
same,TGI,[5],> 85.1 µM
same,GI50,[6],> 95.3 µM
same,TGI,[6],> 100 µM
same,GI50,[7],> 100 µM
same,TGI,[7],> 100 µM
same,GI50,[8],19.9 µM
same,TGI,[8],37 µM
same,GI50,[9],27.9 µM
same,TGI,[9],62.3 µM
same,GI50,[10],> 100 µM
same,TGI,[10],> 100 µM
same,GI50,[11],29 µM
same,TGI,[11],46 µM
same,GI50,[12],40.6 µM
same,TGI,[12],> 100 µM
same,GI50,[13],24.8 µM
same,TGI,[13],65.1 µM
same,GI50,[14],> 71.1 µM
same,TGI,[14],> 100 µM
same,GI50,[15],18.4 µM
same,TGI,[15],> 83.5 µM
same,GI50,[16],29.9 µM
same,TGI,[16],> 100 µM
same,GI50,[17],> 59.8 µM
same,TGI,[17],> 100 µM
same,GI50,[18],> 100 µM
same,TGI,[18],> 100 µM
